In ChEMBL document CHEMBL3044960, “Evaluation of fungicide applications to sweet orange at different flowering stages for control of postbloom fruit drop caused by Colletotrichum acutatum” (2008):
Calls of active or inactive are those of the source. The calls are words filed in the database; no cut-off is given here.

Assays:
Colletotrichum acutatum [1] = assay: Fungicidal activity against Colletotrichum acutatum infested Citrus sinensis assessed as increase in fruit set at 0.5 g/l applied through airblast sprayer during white bud and hollow ball flower stages measured after 70 days relative to control; format: functional, organism-based
Colletotrichum acutatum [2] = assay: Fungicidal activity against Colletotrichum acutatum infested Citrus sinensis assessed as increase in fruit set at 0.5 g/l applied through airblast sprayer during white bud flower stage measured after 70 days; format: functional, organism-based
Colletotrichum acutatum [3] = assay: Fungicidal activity against Colletotrichum acutatum infested Citrus sinensis assessed as increase in fruit set at 0.5 g/l applied through airblast sprayer during green bud flower stage measured after 70 days; format: functional, organism-based
Colletotrichum acutatum [4] = assay: Fungicidal activity against Colletotrichum acutatum infested Citrus sinensis assessed as reduction in number of symptomatic flowers at 0.5 g/l applied through airblast sprayer during green bud until open flower stages measured after 7 days; format: functional, organism-based
Colletotrichum acutatum [5] = assay: Fungicidal activity against Colletotrichum acutatum infested Citrus sinensis assessed as reduction in number of symptomatic flowers at 0.5 g/l applied through airblast sprayer during green bud, white bud and hollow ball flower stages measured after 7 days; format: functional, organism-based
Colletotrichum acutatum [6] = assay: Fungicidal activity against Colletotrichum acutatum infested Citrus sinensis assessed as reduction in number of symptomatic flowers at 0.5 g/l applied through airblast sprayer during green bud and white bud flower stages measured after 7 days; format: functional, organism-based
Colletotrichum acutatum [7] = assay: Fungicidal activity against Colletotrichum acutatum infested Citrus sinensis assessed as reduction in number of symptomatic flowers at 0.5 g/l applied through airblast sprayer during green bud flower stage measured after 7 days; format: functional, organism-based
Colletotrichum acutatum [8] = assay: Fungicidal activity against Colletotrichum acutatum infested Citrus sinensis assessed as increase in fruit production per tree at 0.5 g/l applied through airblast sprayer during green bud to white ball flower stages measured after 70 days in presence of KNO3; format: functional, organism-based
Colletotrichum acutatum [9] = assay: Fungicidal activity against Colletotrichum acutatum infested Citrus sinensis assessed as increase in fruit set percentage at 0.5 g/l applied through airblast sprayer during green bud to white ball flower stages measured after 70 days in presence of KNO3; format: functional, organism-based
Colletotrichum acutatum [10] = assay: Fungicidal activity against Colletotrichum acutatum infested Citrus sinensis assessed as reduction in persistant calyces at 0.5 g/l applied through airblast sprayer during green bud to white ball flower stages measured after 7 days; format: functional, organism-based
Colletotrichum acutatum [11] = assay: Fungicidal activity against Colletotrichum acutatum infested Citrus sinensis assessed as increase in fruit set percentage at 0.5 g/l applied through airblast sprayer during green bud to white ball flower stages measured after 70 days; format: functional, organism-based
Colletotrichum acutatum [12] = assay: Fungicidal activity against Colletotrichum acutatum infested Citrus sinensis assessed as increase in fruit production per tree at 0.5 g/l applied through airblast sprayer during green bud to white ball flower stages measured after 70 days; format: functional, organism-based
Colletotrichum acutatum [13] = assay: Fungicidal activity against Colletotrichum acutatum infested Citrus sinensis assessed as total fruit weight per plant at 0.5 g/l applied through airblast sprayer during white bud and hollow ball flower stages measured after 70 days (Rvb =49.88 kg); format: functional
Colletotrichum acutatum [14] = assay: Fungicidal activity against Colletotrichum acutatum infested Citrus sinensis assessed as total fruit weight per plant at 0.5 g/l applied through airblast sprayer during green bud and hollow ball flower stages measured after 70 days (Rvb =49.88 kg); format: functional
Colletotrichum acutatum [15] = assay: Fungicidal activity against Colletotrichum acutatum infested Citrus sinensis assessed as total fruit weight per plant at 0.5 g/l applied through airblast sprayer during open flower stage measured after 70 days (Rvb =49.88 kg); format: functional
Colletotrichum acutatum [16] = assay: Fungicidal activity against Colletotrichum acutatum infested Citrus sinensis assessed as total fruit weight per plant at 0.5 g/l applied through airblast sprayer during hollow ball flower stage measured after 70 days (Rvb =49.88 kg); format: functional
Colletotrichum acutatum [17] = assay: Fungicidal activity against Colletotrichum acutatum infested Citrus sinensis assessed as total fruit weight per plant at 0.5 g/l applied through airblast sprayer during green bud until open flower stages measured after 70 days (Rvb =65.90 kg); format: functional
Colletotrichum acutatum [18] = assay: Fungicidal activity against Colletotrichum acutatum infested Citrus sinensis assessed as total fruit weight per plant at 0.5 g/l applied through airblast sprayer during green bud, white bud and hollow ball flower stages measured after 70 days (Rvb =65.90 kg); format: functional
Colletotrichum acutatum [19] = assay: Fungicidal activity against Colletotrichum acutatum infested Citrus sinensis assessed as total fruit weight per plant at 0.5 g/l applied through airblast sprayer during green bud and white bud flower stages measured after 70 days (Rvb =65.90 kg); format: functional
Colletotrichum acutatum [20] = assay: Fungicidal activity against Colletotrichum acutatum infested Citrus sinensis assessed as total fruit weight per plant at 0.5 g/l applied through airblast sprayer during green bud flower stage measured after 70 days (Rvb =65.90 kg); format: functional
Colletotrichum acutatum [21] = assay: Fungicidal activity against Colletotrichum acutatum infested Citrus sinensis assessed as increase in fruit set at 0.5 g/l applied through airblast sprayer during open flower stage measured after 70 days; format: functional, organism-based
Colletotrichum acutatum [22] = assay: Fungicidal activity against Colletotrichum acutatum infested Citrus sinensis assessed as reduction in symptomatic flowers at 0.5 g/l applied through airblast sprayer during open flower stage measured after 7 days; format: functional, organism-based
Colletotrichum acutatum [23] = assay: Fungicidal activity against Colletotrichum acutatum infested Citrus sinensis assessed as reduction in symptomatic flowers at 0.5 g/l applied through airblast sprayer during hollow ball flower stage measured after 7 days; format: functional, organism-based
Colletotrichum acutatum [24] = assay: Fungicidal activity against Colletotrichum acutatum infested Citrus sinensis assessed as reduction in symptomatic flowers at 0.5 g/l applied through airblast sprayer during white bud and hollow ball flower stages measured after 7 days; format: functional, organism-based
Colletotrichum acutatum [25] = assay: Fungicidal activity against Colletotrichum acutatum infested Citrus sinensis assessed as reduction in symptomatic flowers at 0.5 g/l applied through airblast sprayer during green bud and hollow ball flower stages measured after 7 days; format: functional, organism-based

COC(=O)Nc1nc2ccccc2[nH]1 [CARBENDAZIM]
Activity (Colletotrichum acutatum [1]): Active | Activity (Colletotrichum acutatum [2]): Active | Activity (Colletotrichum acutatum [3]): Active | Activity (Colletotrichum acutatum [4]): Active | Activity (Colletotrichum acutatum [5]): Active | Activity (Colletotrichum acutatum [6]): Active | Activity (Colletotrichum acutatum [7]): Active | Activity (Colletotrichum acutatum [8]): Active | Activity (Colletotrichum acutatum [9]): Active | Activity (Colletotrichum acutatum [10]): Active | Activity (Colletotrichum acutatum [11]): Active | Activity (Colletotrichum acutatum [12]): Active | Activity (Colletotrichum acutatum [13]): 63.5 kg | Activity (Colletotrichum acutatum [14]): 73.8 kg | Activity (Colletotrichum acutatum [15]): 59 kg | Activity (Colletotrichum acutatum [16]): 57 kg | Activity (Colletotrichum acutatum [17]): 114.9 kg | Activity (Colletotrichum acutatum [18]): 102.4 kg | Activity (Colletotrichum acutatum [19]): 67.9 kg | Activity (Colletotrichum acutatum [20]): 53.7 kg | Activity (Colletotrichum acutatum [21]): inactive | Activity (Colletotrichum acutatum [22]): inactive | Activity (Colletotrichum acutatum [23]): Active | Activity (Colletotrichum acutatum [24]): Active | Activity (Colletotrichum acutatum [25]): Active
